# Patent US20110077237A1, “KINASE INHIBITORS” (VERTEX PHARMACEUTICALS INCORPORATED, priority 2007, published 2011)
# Target: PKC delta kinase (Homo sapiens, UniProt Q05655)
# Test: PKC Delta coupled-enzyme kinase assay
# Assay type: biochemical
# Details: 46 nM PKC delta, 150 μM ATP, 30° C.; read-out: Ki PKC delta
# Description: An assay buffer solution was prepared which consisted of 100 mM HEPES (pH 7.5), 10 mM MgCl2, 25 mM NaCl, 0.1 mM EDTA and 0.01% Brij. […] To 16 μL of this enzyme buffer, in a 384 well plate, was added 1 μL of VRT stock solution in DMSO. The mixture was allowed to equilibrate for 10 mins at 30° C. […] Ki values were calculated from initial rate data by non-linear regression using the Prism software package (Prism 4.0a, Graphpad Software, San Diego, Calif.).
# PKC delta kinase, sequence (Q05655 whole entry): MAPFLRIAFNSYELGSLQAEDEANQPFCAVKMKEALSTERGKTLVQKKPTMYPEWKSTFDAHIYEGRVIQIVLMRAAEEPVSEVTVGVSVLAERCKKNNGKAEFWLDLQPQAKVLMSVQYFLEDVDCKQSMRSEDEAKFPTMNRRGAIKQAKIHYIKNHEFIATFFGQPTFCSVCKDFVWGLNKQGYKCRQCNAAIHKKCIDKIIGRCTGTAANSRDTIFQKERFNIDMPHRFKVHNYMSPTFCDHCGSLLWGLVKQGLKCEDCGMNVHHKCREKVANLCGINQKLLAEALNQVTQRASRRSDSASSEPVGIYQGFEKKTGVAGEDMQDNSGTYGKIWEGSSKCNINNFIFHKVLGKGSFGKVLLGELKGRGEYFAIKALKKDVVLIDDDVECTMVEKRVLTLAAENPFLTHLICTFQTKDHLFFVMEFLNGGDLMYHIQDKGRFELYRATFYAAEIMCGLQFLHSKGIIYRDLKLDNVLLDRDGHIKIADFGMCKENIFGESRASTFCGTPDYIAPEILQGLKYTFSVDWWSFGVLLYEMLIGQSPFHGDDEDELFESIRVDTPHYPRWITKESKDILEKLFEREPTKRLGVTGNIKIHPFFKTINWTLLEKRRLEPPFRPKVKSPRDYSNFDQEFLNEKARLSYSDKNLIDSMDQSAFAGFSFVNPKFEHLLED
row,Compound,Ki [nM]
1,Nc1ncccc1C(=O)c1cccc(N2CCCN(C(=O)c3sccc3Cl)CC2)n1 [compound 92],500 to 2800
2,Cc1sc(N2CCCNCC2)nc1C(=O)c1cccnc1N [compound 109],500 to 2800
3,Nc1ncccc1C(=O)c1cncc(N2CCCNCC2)n1 [compound 157],50 to 500
4,Nc1ncccc1C(=O)c1cncc(N2CCC(N)CC2)n1 [compound 161],500 to 2800
5,Nc1ncc(CCc2ccccc2)cc1C(=O)c1cccc(N2CCCNCC2)n1 [compound 187],50 to 500
6,Nc1ncc(Cc2ccccc2)cc1C(=O)c1cccc(N2CCCNCC2)n1 [compound 188],50 to 500
7,Cc1ccc(N2CCNCC2)nc1C(=O)c1cccnc1N [compound 230],500 to 2800
8,Nc1ncc(Br)cc1C(=O)c1cccc(N2CCNC(c3ccccc3)C2)n1 (stereo not shown) [compound 240],50 to 500
9,C=Cc1cnc(N)c(C(=O)c2cccc(N3CCNC(c4ccccc4)C3)n2)c1 (stereo not shown) [compound 241],50 to 500
10,CC[C@@H]1CNCCN1c1cccc(C(=O)c2cccnc2N)n1 [compound 243],50 to 500
11,CC(C)=Cc1cnc(N)c(C(=O)c2cccc(N3CCCNCC3)n2)c1 [compound 246],50 to 500
12,Nc1ncc(-c2csc3ccccc23)cc1C(=O)c1cccc(N2CCNC(c3ccccc3)C2)n1 (stereo not shown) [compound 266],500 to 2800
13,Nc1ncc(-c2c[nH]c3ccccc23)cc1C(=O)c1cccc(N2CCNC(c3ccccc3)C2)n1 (stereo not shown) [compound 268],50 to 500
14,N#Cc1ccccc1-c1cnc(N)c(C(=O)c2cccc(N3CCNC(c4ccccc4)C3)n2)c1 (stereo not shown) [compound 269],50 to 500
15,N#Cc1cccc(-c2cnc(N)c(C(=O)c3cccc(N4CCNC(c5ccccc5)C4)n3)c2)c1 (stereo not shown) [compound 270],50 to 500
16,N#Cc1ccc(-c2cnc(N)c(C(=O)c3cccc(N4CCNC(c5ccccc5)C4)n3)c2)cc1 (stereo not shown) [compound 271],50 to 500
17,N#CC1(c2cccc(C(=O)c3cccnc3N)n2)CCNCC1 [compound 280],50 to 500
18,Nc1ncc(-c2ccc(CO)cc2)cc1C(=O)c1cccc(N2CCNC(c3ccccc3)C2)n1 (stereo not shown) [compound 282],50 to 500
19,Nc1ncc(-c2cccc(CO)c2)cc1C(=O)c1cccc(N2CCNC(c3ccccc3)C2)n1 (stereo not shown) [compound 283],50 to 500
20,COc1ccccc1-c1cnc(N)c(C(=O)c2cccc(N3CCNC(c4ccccc4)C3)n2)c1 (stereo not shown) [compound 284],50 to 500
21,COc1cccc(-c2cnc(N)c(C(=O)c3cccc(N4CCNC(c5ccccc5)C4)n3)c2)c1 (stereo not shown) [compound 286],50 to 500
22,Nc1ncc(-c2ccncc2)cc1C(=O)c1cccc(N2CCNC(c3ccccc3)C2)n1 (stereo not shown) [compound 288],500 to 2800
23,Nc1ncc(-c2cc[nH]c2)cc1C(=O)c1cccc(N2CCNC(c3ccccc3)C2)n1 (stereo not shown) [compound 289],50 to 500
24,Nc1ncc(/C=C/c2ccccc2)cc1C(=O)c1cccc(N2CCNC(c3ccccc3)C2)n1 (stereo not shown) [compound 290],50 to 500
25,CN(C)c1cccc(-c2cccc(C(=O)c3cccnc3N)n2)c1 [compound 293],> 2800
26,Nc1ncccc1C(=O)c1cccc(-c2c[nH]c3ccccc23)n1 [compound 294],> 2800

row,Compound,Ki [nM]
1,Nc1ncccc1C(=O)c1cccc(N2CCNC(c3ccc(F)cc3)C2)n1 (stereo not shown) [compound 295],50 to 500
2,COc1ccccc1C1CN(c2cccc(C(=O)c3cccnc3N)n2)CCN1 (stereo not shown) [compound 296],50 to 500
3,N#Cc1cnc(N)c(C(=O)c2cccc(N3CCCNCC3)n2)c1 [compound 302],500 to 2800
4,Nc1ncccc1C(=O)c1cccc(N2CCNC(CO)C2)n1 (stereo not shown) [compound 303],50 to 500
5,CC1(N)CCN(c2cccc(C(=O)c3cccnc3N)n2)CC1 [compound 305],50 to 500
6,COc1cccc(C2CN(c3cccc(C(=O)c4cccnc4N)n3)CCN2)c1 (stereo not shown) [compound 309],500 to 2800
7,Nc1ncccc1C(=O)c1cccc(N2CCNC(c3ccc(O)cc3)C2)n1 (stereo not shown) [compound 312],50 to 500
8,Nc1ncccc1C(=O)c1cccc(N2CCNC(c3ccc(Cl)c(Cl)c3)C2)n1 (stereo not shown) [compound 313],50 to 500
9,Nc1ncccc1C(=O)c1cccc(N2CCNC(c3cccc(C(F)(F)F)c3)C2)n1 (stereo not shown) [compound 314],50 to 500
10,Nc1ncccc1C(=O)c1nc(N2CCNCC2)ccc1Cl [compound 315],50 to 500
11,Nc1ncccc1C(=O)c1nc(N2CCNCC2)ccc1C(F)(F)F [compound 316],50 to 500
12,Nc1ncccc1C(=O)c1nc(N2CCNC(c3ccccc3)C2)ccc1C(F)(F)F (stereo not shown) [compound 317],50 to 500
13,Nc1ncccc1C(=O)c1nc(N2CCCNCC2)ccc1C(F)(F)F [compound 318],50 to 500
14,Nc1ncccc1C(=O)c1nc(N2CCNC(c3ccccc3)C2)ccc1Cl (stereo not shown) [compound 321],50 to 500
15,Nc1ncccc1C(=O)c1nc(N2CCC(N)CC2)ccc1Cl [compound 322],50 to 500
16,Nc1ncccc1C(=O)c1nc(N2CCCNCC2)ccc1Cl [compound 324],50 to 500
17,Nc1ncc(Br)cc1C(=O)c1nc(N2CCNCC2)ccc1Cl [compound 329],50 to 500
18,Nc1ncc(Br)cc1C(=O)c1nc(N2CCNC(c3ccccc3)C2)ccc1Cl (stereo not shown) [compound 331],50 to 500
19,Cc1cccc(C2CN(c3cccc(C(=O)c4cccnc4N)n3)CCN2)c1 (stereo not shown) [compound 335],50 to 500
20,CC(C)C[C@H]1CN(c2ccc(OC(F)F)c(C(=O)c3cccnc3N)n2)CCN1 [compound 356],50 to 500
21,CC(C)C[C@H](N)CNc1ccc(C(F)(F)F)c(C(=O)c2cccnc2N)n1 [compound 396],50 to 500
22,COc1cccc(C2CN(c3ccc(C(F)(F)F)c(C(=O)c4cccnc4N)n3)CCN2)c1 (stereo not shown) [compound 397],50 to 500
23,Nc1ncccc1C(=O)c1nc(N2CCNC(c3ccccc3)C2)ccc1C(F)F (stereo not shown) [compound 404],50 to 500
24,CC(C)C[C@H](N)COc1ccc(C(F)(F)F)c(C(=O)c2cccnc2N)n1 [compound 406],50 to 500
25,CC#Cc1ccc(N2CCNCC2)nc1C(=O)c1cccnc1N [compound 412],50 to 500

# Target: PKC alpha kinase (Homo sapiens, UniProt P17252)
# Test: PKC Alpha coupled-enzyme kinase assay
# Assay type: biochemical
# Details: 4.5 nM PKC alpha, 130 μM ATP, 30° C.
# Description: An assay buffer solution was prepared which consisted of 100 mM HEPES (pH 7.5), 10 mM MgCl2, 25 mM NaCl, 0.1 mM EDTA, 100 μM CaCl2 and 0.01% Brij. […] To 16 μL of this enzyme buffer, in a 384 well plate, was added 1 μL of VRT stock solution in DMSO. The mixture was allowed to equilibrate for 10 mins at 30° C. The enzyme reaction was initiated by the addition of 16 μL stock ATP solution prepared in assay buffer to a final assay concentration of 130 μM. Initial rate data was determined from the rate of change of absorbance at 340 nm (corresponding to stoichiometric consumption of NADH) using a Molecular Devices Spectramax plate reader (Sunnyvale, Calif.) over 15 mins at 30° C. For each Ki determination 12 data points covering the VRT concentration range of 0-20 μM were obtained in duplicate (DMSO stocks were prepared from an initial 10 mM VRT stock with subsequent 1:2 serial dilutions). Ki values were calculated from initial rate data by non-linear regression using the Prism software package (Prism 4.0a, Graphpad Software, San Diego, Calif.).
row,Compound,Ki [nM]
1,Nc1ncccc1C(=O)c1cccc(N2CCCN(C(=O)c3sccc3Cl)CC2)n1 [compound 92],500 to 2800
2,C#Cc1cnc(N)c(C(=O)c2cccc(N3CCCNCC3)n2)c1 [compound 108],< 50
3,Cc1sc(N2CCCNCC2)nc1C(=O)c1cccnc1N [compound 109],500 to 2800
4,Nc1ncccc1C(=O)c1cncc(N2CCCNCC2)n1 [compound 157],500 to 2800
5,Nc1ncccc1C(=O)c1cncc(N2CCC(N)CC2)n1 [compound 161],500 to 2800
6,Nc1ncc(CCc2ccccc2)cc1C(=O)c1cccc(N2CCCNCC2)n1 [compound 187],< 50
7,Nc1ncc(Cc2ccccc2)cc1C(=O)c1cccc(N2CCCNCC2)n1 [compound 188],< 50
8,C=Cc1cnc(N)c(C(=O)c2cccc(N3CCNCC3)n2)c1 [compound 202],< 50
9,Cc1ccc(N2CCNCC2)nc1C(=O)c1cccnc1N [compound 230],500 to 2800
10,Nc1ncc(Br)cc1C(=O)c1cccc(N2CCNC(c3ccccc3)C2)n1 (stereo not shown) [compound 240],< 50
11,C=Cc1cnc(N)c(C(=O)c2cccc(N3CCNC(c4ccccc4)C3)n2)c1 (stereo not shown) [compound 241],< 50
12,CC[C@@H]1CNCCN1c1cccc(C(=O)c2cccnc2N)n1 [compound 243],500 to 2800
13,CC(C)=Cc1cnc(N)c(C(=O)c2cccc(N3CCCNCC3)n2)c1 [compound 246],< 50
14,Nc1ncccc1C(=O)c1cccc(N2CCNC(CO)C2)n1 (stereo not shown) [compound 303],500 to 2800
15,CC(C)C[C@H]1CN(c2ccc(Cl)c(C(=O)c3cccnc3N)n2)CCN1 [compound 323],< 50
16,C=Cc1cnc(N)c(C(=O)c2nc(N3CCNCC3)ccc2C(F)(F)F)c1 [compound 327],< 50
17,C=Cc1cnc(N)c(C(=O)c2nc(N3CCNCC3)ccc2Cl)c1 [compound 330],< 50
18,CC(C)C[C@H]1CN(c2ccc(C3CC3)c(C(=O)c3cccnc3N)n2)CCN1 [compound 352],500 to 2800
19,CCCc1ccc(N2CCN[C@@H](CC(C)C)C2)nc1C(=O)c1cccnc1N [compound 385],500 to 2800
20,Nc1ncccc1C(=O)c1nc(NC[C@@H](N)c2ccccc2)ccc1C(F)(F)F [compound 388],< 50
21,Nc1ncccc1C(=O)c1nc(OCC(N)c2ccccc2)ccc1C(F)(F)F (stereo not shown) [compound 415],< 50
22,CC(C)C[C@H]1CN(c2ccc(Cc3ccccc3)c(C(=O)c3cccnc3N)n2)CCN1 [compound 418],500 to 2800
